Series [1] can be described thus: Preliminary metabolic stability in rat liver microsomes. The format is in vitro ADME. The settings on record: pH 7.4, RLMs 1 mg/mL, 50 μM compound, 37 °C.
In the next series the test system is HepG2 cells. The experiment in a line: Hepatotoxicity, HepG2 cell viability. Format: cell-based, human. The note with it: 72 h incubation.
In series [2] the test system is male Wistar rats. The experiment in a line: Porsolt forced swimming test. The format is in vivo. The note with it: rat FST, 60 min before test, mean ± SEM. The procedure: The experiments were performed on male Wistar rats (170–200 g) obtained from an accredited animal facility at the Jagiellonian University Medical College, Krakow, Poland. […] Standard laboratory food (LSM-B) and filtered water were freely available. […] Each animal was assigned randomly to treatment groups and only used once (no repeated use of animals). All the experiments were performed by two observers unaware of the treatment applied between 9:00 and 14:00 on separate groups of animals. […] All efforts were made to minimize suffering and to reduce the number of animals used in the experiments and to use only the number of animals necessary to produce reliable scientific data. Each experimental group consisted of 6–8 animals. […] The examined compounds were administered orally 60 min before tests. In antagonism experiments, WAY100635 (Tocris, UK) was administered subcutaneously 75 min before testing. Control animals received vehicle (distilled water) according to the same schedule. […] On the following day (24 h later), the rats were re-placed in the cylinder after administration of test compounds and the total duration of immobility was recorded during the 5-min test period. […] Fresh water was used for each animal.

For series [3], the system named is male Wistar rats. The experiment in a line: Lower lip retraction. Format: in vivo. The settings on record: rat; for LLR score: 50 min before test, score 0-10; for ability to induce lower lip retraction (LLR), in words: p.o. The procedure:
The experiments were performed on male Wistar rats (170–200 g) obtained from an accredited animal facility at the Jagiellonian University Medical College, Krakow, Poland. […] All efforts were made to minimize suffering and to reduce the number of animals used in the experiments and to use only the number of animals necessary to produce reliable scientific data. Each experimental group consisted of 6–8 animals.
The examined compounds were administered orally 60 min before tests. In antagonism experiments, WAY100635 (Tocris, UK) was administered subcutaneously 75 min before testing. Control animals received vehicle (distilled water) according to the same schedule.
Observations were made according to the method described by Kleven et al.([68]) Animals were observed individually during a 10 min period for 10 s of observation per animal. During each of these observation periods, the uninterrupted presence for at least 3 s (1) or absence (0) of LLR was recorded. This cycle was repeated 10 times over a 10 min period; thus, the incidence of a particular behavior could vary from 0 to 10.

The nature of series [4]: In vitro rat plasma protein binding (ultrafiltration). The format is in vitro ADME. The note with it: rat serum; for fraction unbound at 30 min, 3 µg/mL / fraction unbound at 30 min, 30 µg/mL: male, Wistar, read-out: PPB ± SD (converted). The method, then:
Fresh blood was harvested from male adult Wistar rats that were sacrificed by exsanguination. The blood was allowed to clot for 20 min at room temperature and then centrifuged at 3000 rpm for 10 min (Universal 32, Hettich, Germany). 56 and 44 dissolved in water were added in volume of 10 μL to separate glass tubes containing 1 mL aliquots of rat serum to achieve final concentrations of 3 and 30 μg/mL each. All tests were run in triplicate. After vortexing, the serum samples were incubated in a water bath at 37 °C for 30 min with gentle shaking. Following this incubation period, 100 μL of serum samples from each tube were transferred to Eppendorf tubes and frozen at −80 °C for analysis. The remaining serum was transferred into Centrifree ultrafiltration devices with Ultracel regenerated cellulose membrane (Merck, Darmstadt, Germany) and centrifuged at 1000g for 15 min (EBA III centrifuge, Hettich, Germany). The collected ultrafiltrates were frozen (−80 °C) for further analysis.

The target of another series is panel of 45 off-targets. The note with it: highest off-target affinity, estimated from screening data.
In a further series the target is T1, β1 (Homo sapiens, UniProt P08588).
T1 construct: Eurofins Pharma Discovery Services (contract screen)
The experiment in a line: Off-target binding screen. The settings on record: 1000 nM, read-out: % Inhibition of Control Specific Binding.

A further series concerns the target T2, H1 (Homo sapiens, UniProt P35367).
T2 construct: Eurofins Pharma Discovery Services (contract assay)
The experiment in a line: Off-target binding screen. The note with it: 1000 nM, read-out: % Inhibition of Control Specific Binding.

The values that follow come from paper PMC7586344, “Discovery of Novel pERK1/2- or β-Arrestin-Preferring 5-HT1A Receptor-Biased Agonists: Diversified Therapeutic-like versus Side Effect Profile” (Journal of Medicinal Chemistry, 2020).

Structures are written as SMILES.

T1 sequence (P08588 whole entry): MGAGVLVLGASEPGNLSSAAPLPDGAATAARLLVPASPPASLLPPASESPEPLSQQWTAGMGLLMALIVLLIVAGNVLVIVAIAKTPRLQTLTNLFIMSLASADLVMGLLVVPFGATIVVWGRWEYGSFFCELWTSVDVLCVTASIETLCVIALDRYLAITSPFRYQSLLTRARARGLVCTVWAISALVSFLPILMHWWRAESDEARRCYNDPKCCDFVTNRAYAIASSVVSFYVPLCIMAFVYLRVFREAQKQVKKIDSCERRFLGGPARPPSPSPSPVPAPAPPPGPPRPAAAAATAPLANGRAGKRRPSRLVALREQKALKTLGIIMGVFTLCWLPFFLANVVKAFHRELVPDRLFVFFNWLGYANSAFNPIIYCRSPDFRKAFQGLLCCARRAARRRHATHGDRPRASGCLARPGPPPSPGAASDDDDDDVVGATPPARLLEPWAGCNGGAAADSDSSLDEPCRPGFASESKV
T2 sequence (P35367 whole entry): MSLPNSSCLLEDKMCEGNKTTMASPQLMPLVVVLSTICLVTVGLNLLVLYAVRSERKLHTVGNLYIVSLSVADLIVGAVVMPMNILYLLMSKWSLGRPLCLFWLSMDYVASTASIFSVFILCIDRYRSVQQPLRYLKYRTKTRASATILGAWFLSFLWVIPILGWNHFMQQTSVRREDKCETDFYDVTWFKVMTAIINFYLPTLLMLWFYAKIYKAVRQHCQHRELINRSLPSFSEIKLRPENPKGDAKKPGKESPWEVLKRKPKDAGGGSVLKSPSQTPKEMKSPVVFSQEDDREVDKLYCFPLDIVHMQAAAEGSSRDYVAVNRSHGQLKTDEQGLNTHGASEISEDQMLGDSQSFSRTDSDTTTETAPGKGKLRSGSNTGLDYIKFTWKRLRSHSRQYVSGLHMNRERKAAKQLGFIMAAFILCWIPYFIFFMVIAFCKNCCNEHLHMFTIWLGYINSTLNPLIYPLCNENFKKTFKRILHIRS

Turning to `O=C(c1ccc(F)c(Cl)c1)N1CCC(F)(CNCCOc2cccc3[nH]ccc23)CC1` [Compound 56, (4-(((2-((1H-Indol-4-yl)oxy)ethyl)amino)methyl)-4-fluoropiperidin-1-yl)(3-chloro-4-fluorophenyl)methanone], the share remaining at 2 h, 50 μM in series [1] turned out to be 87.4%. Further, in the series with HepG2 cells, the “hepatotoxicity 50% viability of HepG2 cells” value is >50 µM. Besides, the Immobility time with male Wistar rats [2] (1.25 mg/kg p.o.) was found to be 67.63 ± 7.83 s. The LLR score with male Wistar rats [3] (0.312 mg/kg p.o.) and in the series on male Wistar rats [3] (1.25 mg/kg p.o.) was 10 ± 0 in each case. Besides, in the series with male Wistar rats [3], the “ability to induce lower lip retraction (LLR), in words” value is “elicited a full LLR”. Moreover, the figures for the “fu ± SD” value in series [4] (C0 3 µg/mL) and in series [4] (C0 30 µg/mL) were 1.1 ± 0.1% and 1.9 ± 0.1%, respectively. The fraction unbound at 30 min, 3 µg/mL in series [4] (C0 3 µg/mL) was 0.011. Moreover, in series [4] (C0 30 µg/mL), the fraction unbound at 30 min, 30 µg/mL was 0.019. Further, the “affinity for some of the off-targets (pKi)” value on panel of 45 off-targets is ~8.
On to `CNc1ccccc1OCCNCC1(F)CCN(C(=O)c2ccc(F)c(Cl)c2)CC1` [Compound 44, (3-Chloro-4-fluorophenyl)(4-fluoro-4-(((2-(2-(methylamino)phenoxy)ethyl)amino)methyl)piperidin-1-yl)methanone], for which, in the series on male Wistar rats [2] (0.04 mg/kg p.o.), the Immobility time was 199.50 ± 12.35 s. Moreover, the LLR score in the series with male Wistar rats [3] (0.04 mg/kg p.o.) was determined as 0. In addition, in the series on male Wistar rats [3], the “ability to induce lower lip retraction (LLR), in words” value is recorded as “did not induce any significant LLR”. In series [4] (C0 3 µg/mL), the “fu ± SD” value came to 1.6 ± 0.1% and the fraction unbound at 30 min, 3 µg/mL was 0.016. In addition, in series [4] (C0 30 µg/mL), the “fu ± SD” value was 1.8 ± 0.1% and the fraction unbound at 30 min, 30 µg/mL was 0.018. Moreover, the inhibition at 1 µM at β1 was -5%. Moreover, the inhibition at 1 µM on H1 was -5%.
Compound `O=C(c1ccc(F)c(Cl)c1)N1CCC(F)(CNCCOc2ccccc2)CC1` [Compound 3] returned a share remaining at 2 h, 50 μM in series [1] of 59.2%. Moreover, the “hepatotoxicity 50% viability of HepG2 cells” value in the series on HepG2 cells is >50 µM. The inhibition at 1 µM is -8% on β1 and -9% at H1.
